Data taken from patent US12298319B2, “Method for measuring alpha value of muscarinic M1 receptor positive allosteric modulators” (Takeda Pharmaceutical Company Limited, priority 2017, dated 2025).
Like-named read-outs stand apart in the source and are kept apart here.

What was measured:
M5R = molecular target: T1, M5R (Homo sapiens, UniProt P08912); experiment: Ca2+ flux assay in CHO-K1 cells expressing human M5R; format: cell-based; parameters: expressed in transfected cells; host or cells: CHO-K1; conditions: read-out: IP for M5R
T1 sequence (P08912 1-532): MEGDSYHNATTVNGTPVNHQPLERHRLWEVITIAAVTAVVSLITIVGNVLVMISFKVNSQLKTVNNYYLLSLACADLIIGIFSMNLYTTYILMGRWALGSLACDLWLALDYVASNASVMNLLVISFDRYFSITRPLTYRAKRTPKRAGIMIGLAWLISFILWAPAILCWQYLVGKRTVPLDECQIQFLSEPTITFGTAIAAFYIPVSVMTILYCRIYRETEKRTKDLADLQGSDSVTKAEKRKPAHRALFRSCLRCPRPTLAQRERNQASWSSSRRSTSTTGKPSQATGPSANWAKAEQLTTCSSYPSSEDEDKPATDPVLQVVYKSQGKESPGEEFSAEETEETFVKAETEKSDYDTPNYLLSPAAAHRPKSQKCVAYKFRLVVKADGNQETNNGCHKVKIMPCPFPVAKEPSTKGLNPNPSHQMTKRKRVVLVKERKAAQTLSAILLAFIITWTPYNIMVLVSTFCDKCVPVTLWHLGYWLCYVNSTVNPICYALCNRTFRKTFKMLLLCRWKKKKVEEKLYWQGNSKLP

M4R = molecular target: T2, M4R (Homo sapiens, UniProt P08173); experiment: Ca2+ flux assay in CHO-K1 cells expressing human M4R; format: cell-based; parameters: expressed in transfected cells; host or cells: CHO-K1; conditions: read-out: IP for M4R
T2 sequence (P08173 1-479): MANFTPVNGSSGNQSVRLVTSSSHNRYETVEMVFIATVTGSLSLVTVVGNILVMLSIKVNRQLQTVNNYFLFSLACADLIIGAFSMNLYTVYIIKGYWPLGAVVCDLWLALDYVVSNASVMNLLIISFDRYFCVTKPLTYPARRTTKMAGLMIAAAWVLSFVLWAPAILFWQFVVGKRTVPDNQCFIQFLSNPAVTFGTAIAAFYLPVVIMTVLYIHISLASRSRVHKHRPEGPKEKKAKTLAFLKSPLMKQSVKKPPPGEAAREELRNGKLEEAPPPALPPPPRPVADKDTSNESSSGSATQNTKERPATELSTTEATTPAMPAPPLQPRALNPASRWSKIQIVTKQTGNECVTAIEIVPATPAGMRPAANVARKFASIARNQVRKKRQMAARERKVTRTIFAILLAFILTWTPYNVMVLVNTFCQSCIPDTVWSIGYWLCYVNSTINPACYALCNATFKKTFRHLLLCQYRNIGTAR

[1] = Plasma and brain concentration in samples of in vivo IP1 assay; parameters: species or system mouse; conditions: for concentration at 3 h: mouse, oral, mean±SD
Protocol: Plasma and brain concentration of Compound D in sample of in vivo IP1 assay at 3 h after oral treatment. Results represent the mean±SD. n=10 per group.
Plasma and brain concentration of Compound C in sample of in vivo IP1 assay at 3 h after oral treatment. Results represent the mean±SD. n=10 per group.

[2] = system: layer 5 pyramidal neurons; experiment: Electrophysiology, current clamp of layer 5 pyramidal neurons in mPFC slices; format: cell-based, mouse; conditions: bath application, Compound D at 10 μM; for after hyperpolarization (AHP) / resting membrane potential (RMP): carbachol 10 M [sic] for 10 min; for after depolarization (ADP): carbachol for 10 min as printed
Protocol: Experiments were performed on coronal brain slices of the medial prefrontal cortex (mPFC) from 4-week-old male C57BL/6 mice. The animals were quickly sacrificed and the brain was placed in an ice-cold NMDG artificial cerebrospinal fluid (ACSF) (in mM): NMDG, 92; KCl, 2.5; CaCl2, 0.5; NaH2PO4, 1.25; MgSO4, 6; NaHCO3, 30; glucose, 25; HEPES, 20; thiourea, 2; Na-ascorbate, 5; and Na-pyruvate, 3) (Ting J. T. et al., Methods Mol Biol. 2014; 1183:221-42). Slices were cut at a thickness of 300 μm with a vibroslicer. Slices were initially transferred to a holding chamber containing NMDG aCSF for 15 minutes at 34° C. Slices were then transferred to a room temperature holding chamber for at least 1 h containing HEPES aCSF (in mM): NMDG, 92; KCl, 2.5; CaCl2, 2; NaH2PO4, 1.25; MgSO4, 2; NaHCO3, 30; glucose, 25; HEPES, 20; thiourea, 2; Na-ascorbate, 5; and Na-pyruvate, 3). Subsequently, the slices were transferred to the recording chamber, in which they were submerged and perfused with aCSF containing the following (in mM): NaCl, 124; KCl, 5; NaH2PO4, 1.2; MgCl2, 1.5; CaCl2, 2.5; glucose, 10; and NaHCO3, 24), at a flow rate of 1-2 ml/min. All buffers were continuously bubbled and saturated with carbogen (95% O2/5% CO2). Current clamp recordings were carried out at 32-33° C. from visually identified pyramidal neurons from layer 5 using a borosilicate pipette (5-7 MΩ) filled with intracellular solution (in mM): K-gluconate, 135; KCl, 4; HEPES, 10; EGTA, 0.2; MgATP, 4; Na2GTP, 0.3; pH 7.3 with KOH). Signals were acquired using a Multiclamp 700B amplifier and a Digidata 1440A interface board (Molecular Devices Japan, Tokyo, Japan), filtered between 2 kHz, sampled at 10 kHz, and analyzed with pClamp10 software.
M1Rs are known to contribute to the three cholinergic effects in layer 5 pyramidal neurons: the resting membrane potential (RMP) and physiological responses such as the after hyperpolarization (AHP) the after depolarization (ADP) that typically follow brief periods of action potential generation (Gulledge et al., J. Neurosci. 2009 Aug. 5; 29(31): 9888-9902). To investigate effects of M1 PAMs with different n value on brain function, cholinergic excitation by Compound D and Compound C were assessed. First, the muscarinic receptor agonist carbachol ([…] for 10 min) was tested by bath application (FIG. 13-A, FIG. 13-B, FIG. 13-C).

Row | differences in PK profile between wild-type and M1R KO mice ([1]; 3 mg/kg p.o.) | concentration at 3 h ([1]; brain, 3 mg/kg, 3 mg/kg p.o., M1KO mice, read-out: Brain concentration) | concentration at 3 h ([1]; brain, 3 mg/kg, 3 mg/kg p.o., wild-type mice, read-out: Brain concentration) | concentration at 3 h ([1]; plasma, 3 mg/kg, 3 mg/kg p.o., M1KO mice, read-out: Plasma concentration) | concentration at 3 h ([1]; plasma, 3 mg/kg, 3 mg/kg p.o., wild-type mice, read-out: Plasma concentration) | SMILES | EC50 (M5R) | EC50 (M4R) | differences in brain concentration between wild-type and M1R KO mice ([1]; 10 mg/kg p.o.) | concentration at 3 h ([1]; brain, 10 mg/kg, 10 mg/kg p.o., M1KO mice, read-out: Brain concentration) | concentration at 3 h ([1]; brain, 10 mg/kg, 10 mg/kg p.o., wild-type mice, read-out: Brain concentration) | concentration at 3 h ([1]; plasma, 10 mg/kg, 10 mg/kg p.o., M1KO mice, read-out: Plasma concentration) | concentration at 3 h ([1]; plasma, 10 mg/kg, 10 mg/kg p.o., wild-type mice, read-out: Plasma concentration) | after hyperpolarization (AHP) [2] | resting membrane potential (RMP) [2] | after depolarization (ADP) [2]
1 | – | – | – | – | – | Cn1cc(-c2ccc(Cc3cc4c(=O)n([C@H]5CCCC[C@@H]5O)cnc4c4ccccc34)cn2)cn1 [Compound C, 3-((1S,2S)-2-hydroxycyclohexyl)-6-((6-(1-methyl-1H-pyrazol-4-yl)pyridin-3-yl)methyl)benzo[h]quinazoline-4(3H)-one, reference compound] | > 1 µM | > 1 µM | No significant differences | 62.7 ± 9.1 ng/g | 63.7 ± 16.8 ng/g | 6130 ± 1160 ng/mL | 2340 ± 628 ng/mL | suppressed the AHP | generated subthreshold changes in the RMP | generated an ADP
2 | No significant differences | 370 ± 50 ng/g | 350 ± 80 ng/g | 3260 ± 260 ng/mL | 3110 ± 490 ng/mL | Cc1c(Cc2ccc(-n3cccn3)cc2)cc2c(c1F)CN([C@H]1COCC[C@@H]1O)C2=O [Compound D, 4-fluoro-2-[(3S,4S)-4-hydroxytetrahydro-2H-pyran-3-yl]-5-methyl-6-[4-(1H-pyrazol-1-yl)benzyl]-2,3-dihydro-1H-isoindol-1-one] | > 10 µM | > 10 µM | – | – | – | – | – | not depolarization of RMP and suppression of AHP | not depolarization of RMP | produced significant ADP generation
